Assay results from ChEMBL document CHEMBL4433240, “Identification and characterization of potent and selective inhibitors targeting protein tyrosine phosphatase 1B (PTP1B)” (Bioorg Med Chem Lett, 2019).
pIC50: −log10 of the molar value. The source made the active and inactive calls. The rule behind the calls is not given here.

Assays:
[1] = target: T1, Tyrosine-protein phosphatase non-receptor type 1 (Homo sapiens) (UniProt P18031); experiment: Competitive inhibition of PTP1B (unknown origin) assessed as increase in Km at 0 to 9.6 uM using varying levels of pNPP as substrate by Lineweaver-Burk plot analysis
T1 sequence (whole entry): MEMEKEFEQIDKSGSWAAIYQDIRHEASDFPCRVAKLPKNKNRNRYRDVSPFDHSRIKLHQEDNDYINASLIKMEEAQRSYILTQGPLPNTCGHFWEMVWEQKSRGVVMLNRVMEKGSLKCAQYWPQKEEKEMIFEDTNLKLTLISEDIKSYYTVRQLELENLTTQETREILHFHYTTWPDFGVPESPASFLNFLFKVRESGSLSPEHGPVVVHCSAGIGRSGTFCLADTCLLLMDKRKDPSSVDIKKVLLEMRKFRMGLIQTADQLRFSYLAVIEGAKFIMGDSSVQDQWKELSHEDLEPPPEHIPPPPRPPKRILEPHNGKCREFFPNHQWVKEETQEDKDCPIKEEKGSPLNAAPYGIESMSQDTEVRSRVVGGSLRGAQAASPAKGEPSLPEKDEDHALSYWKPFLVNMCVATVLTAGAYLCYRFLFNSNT

L02 = experiment: Cytotoxicity against human L02 cells assessed as reduction in cell viability after 72 hrs by WST1 assay; assay type: cell-based; details: L02, 72 h
[2] = Cytotoxicity against human L02 cells assessed as cell viability at 1 to 250 uM after 72 hrs by WST1 assay; assay type: cell-based; details: read-out: Activity
Homo sapiens [3] = organism: Homo sapiens; experiment: Selectivity ratio of IC50 for TCPTP (unknown origin) using pNPP as substrate to IC50 for PTP1B (unknown origin) using pNPP as substrate
[4] = target: T2, Tyrosine-protein phosphatase non-receptor type 1 (Homo sapiens, UniProt P18031); experiment: Inhibition of PTP1B (unknown origin) assessed as reduction in nitrophenol production using pNPP as substrate incubated for 30 mins by EnVisionMultilable plate reader based method
T2 sequence (P18031 whole entry): T1 sequence (whole entry)

[5] = target: T1, Tyrosine-protein phosphatase non-receptor type 1 (Homo sapiens); experiment: Competitive inhibition of PTP1B (unknown origin) assessed as change in V max at 0 to 9.6 uM using varying levels of pNPP as substrate by Lineweaver-Burk plot analysis
[6] = target: T3, Tyrosine-protein phosphatase non-receptor type 2 (Homo sapiens, UniProt P17706); experiment: Inhibition of TCPTP (unknown origin) assessed as reduction in nitrophenol production using pNPP as substrate incubated for 30 mins by EnVisionMultilable plate reader based method
T3 sequence (P17706 whole entry): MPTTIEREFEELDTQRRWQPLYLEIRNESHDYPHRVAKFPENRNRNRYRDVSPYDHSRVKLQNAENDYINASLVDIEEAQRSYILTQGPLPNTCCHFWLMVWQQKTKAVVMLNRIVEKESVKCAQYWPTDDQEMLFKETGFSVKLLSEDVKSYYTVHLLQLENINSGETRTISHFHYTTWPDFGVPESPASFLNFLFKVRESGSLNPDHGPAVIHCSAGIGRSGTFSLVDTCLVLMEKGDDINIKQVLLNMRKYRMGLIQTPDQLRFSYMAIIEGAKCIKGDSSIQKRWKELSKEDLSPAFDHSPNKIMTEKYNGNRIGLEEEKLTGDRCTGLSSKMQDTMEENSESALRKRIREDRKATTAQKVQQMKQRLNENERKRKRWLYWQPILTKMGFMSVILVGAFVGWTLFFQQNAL

Homo sapiens [7] = organism: Homo sapiens; experiment: Selectivity ratio of IC50 for TCPTP (unknown origin) to IC50 for human GST-tagged PTP1B
[8] = target: T2, Tyrosine-protein phosphatase non-receptor type 1; experiment: Inhibition of human FLAG-tagged PTP1B catalytic domain (1 to 298) expressed in Escherichia coli using fluorescein diphosphate as substrate by fluorescence based method
[9] = target: T3, Tyrosine-protein phosphatase non-receptor type 2; experiment: Inhibition of human FLAG-tagged TCPTP (1 to 296) expressed in Escherichia coli using fluorescein diphosphate as substrate by fluorescence based method
[10] = target: T1, Tyrosine-protein phosphatase non-receptor type 1 (Homo sapiens); experiment: Competitive inhibition of PTP1B (unknown origin) assessed as change in V max at 0 to 28.8 uM using varying levels of pNPP as substrate by Lineweaver-Burk plot analysis
[11] = target: T1, Tyrosine-protein phosphatase non-receptor type 1 (Homo sapiens); experiment: Competitive inhibition of PTP1B (unknown origin) assessed as increase in Km at 0 to 28.8 uM using varying levels of pNPP as substrate by Lineweaver-Burk plot analysis

Structure (SMILES) | Ratio IC50 (Homo sapiens [3]) | pIC50 [4] | pIC50 [6] | further results
COC(=O)C1=C(C(C)C)NC(=S)N[C@H]1/C=C/c1ccc([N+](=O)[O-])cc1 | – | < 4.30 | – | –
CCOC(=O)C1=C(C(C)C)NC(=S)N[C@H]1/C=C/c1ccc(Br)cc1 | > 8.85 | 4.95 | < 4.00 | –
COC(=O)C1=C(C(C)C)NC(=S)N[C@H]1/C=C/c1ccc(C(F)(F)F)cc1 | > 18.2 | 5.26 | < 4.00 | –
CC(C)OCc1cc(O)c(O)c(Br)c1Cc1cc(O)c(O)c(Br)c1Br | – | – | – | Ratio IC50 (Homo sapiens [7]): > 50
CCOC(=O)C1=C(C(C)C)NC(=S)N[C@H]1/C=C/c1ccccc1 | – | < 4.30 | – | –
CCOC(=O)C1=C(C(C)C)NC(=S)N[C@H]1/C=C/c1ccc(C(F)(F)F)cc1 | > 9.66 | 4.99 | < 4.00 | –
CCOC(=O)C1=C(C(C)C)NC(=S)N[C@H]1/C=C/c1ccc(C)cc1 | > 13.3 | 5.13 | < 4.00 | –
COC(=O)C1=C(C(C)(C)C)NC(=S)N[C@H]1/C=C/c1ccc(F)cc1 | – | < 4.30 | – | –
CC1(C)CC[C@]2(C(=O)O)CC[C@]3(C)C(=CC[C@@H]4[C@@]5(C)CC[C@H](O)C(C)(C)[C@@H]5CC[C@]43C)[C@@H]2C1 [OLEANOLIC_ACID] | – | – | – | viability at 72 h, up to 250 µM [2]: < 85%
COC(=O)C1=C(C(C)(C)C)NC(=S)N[C@H]1/C=C/c1ccc(C(F)(F)F)cc1 | > 15.8 | 5.20 | < 4.00 | –
COC(=O)C1=C(C(C)(C)C)NC(=S)N[C@H]1/C=C/c1ccc(Br)cc1 | 3.28 | 4.96 | 4.44 | –
COC(=O)C1=C(C(C)(C)C)NC(=S)N[C@H]1/C=C/c1ccc(Cl)cc1 | 8.24 | 5.18 | 4.26 | –
COC(CC(C)C)c1ccc2ccc(-c3ccc(CC(Cc4ccc(C(F)(F)P(=O)(O)O)cc4)(c4ccccc4)n4nnc5ccccc54)cc3)c(P(=O)(O)O)c2n1 (configuration not stated) | – | – | – | pIC50 [8]: 8.30; pIC50 [9]: 7.44
COC(=O)C1=C(C(C)(C)C)NC(=S)N[C@H]1/C=C/c1ccc([N+](=O)[O-])cc1 | > 8.79 | 4.94 | < 4.00 | –
COC(=O)C1=C(C(C)(C)C)NC(=S)N[C@H]1/C=C/c1ccc(C)cc1 | > 6.13 | 4.79 | < 4.00 | –
CCOC(=O)C1=C(C(C)C)NC(=S)N[C@H]1/C=C/c1ccc([N+](=O)[O-])cc1 | – | < 4.30 | < 4.00 | –
COC(=O)C1=C(C(C)C)NC(=S)N[C@H]1/C=C/c1ccc(F)cc1 | > 30 | 5.48 | < 4.00 | pIC50 (L02): < 3.60; inhibition [10]: Active; viability at 72 h, up to 250 µM [2]: > 85%; inhibition [11]: Active
CCOC(=O)C1=C(C(C)C)NC(=S)N[C@H]1/C=C/c1ccc(Cl)cc1 | 7.47 | 5.32 | 4.45 | –

More lines, main results first:

Ratio IC50 (Homo sapiens [3]) | pIC50 [4] | pIC50 [6] | Structure (SMILES) | further results
> 14 | 5.15 | < 4.00 | COC(=O)C1=C(C(C)C)NC(=S)N[C@H]1/C=C/c1ccc(Cl)cc1 | inhibition [1]: Active; pIC50 (L02): < 3.60; viability at 72 h, up to 250 µM [2]: > 85%; inhibition [5]: Active
– | < 4.30 | – | COC(=O)C1=C(C(C)(C)C)NC(=S)N[C@H]1/C=C/c1ccccc1 | –
> 5.39 | 4.73 | < 4.00 | COC(=O)C1=C(C(C)C)NC(=S)N[C@H]1/C=C/c1ccccc1 | –
– | < 4.30 | – | CCOC(=O)C1=C(C(C)C)NC(=S)N[C@H]1/C=C/c1ccc(F)cc1 | –
17 | 5.62 | 4.39 | CCOC(=O)C1=C(C(C)C)NC(=S)N[C@H]1/C=C/c1ccc(OC)cc1 | –
> 15.9 | 5.20 | < 4.00 | COC(=O)C1=C(C(C)C)NC(=S)N[C@H]1/C=C/c1ccc(Br)cc1 | –
> 19.9 | 5.30 | < 4.00 | COC(=O)C1=C(C(C)(C)C)NC(=S)N[C@H]1/C=C/c1ccc(OC)cc1 | –
